Columns and labels:
[1] = Metabolic stability of [18F]WC-4-138 in mice (percent parent by HPLC); format: in vivo; settings: C57BL/6J mice
Procedure: In these experiments, the metabolic stability of [^18]-WC-4-138 was assessed after injecting 400 μCi into the tail veins of adult male C57BL/6J mice (Jackson Laboratory). Mice were sacrificed by cervical dislocation 5 or 30 minutes post-injection. […] The plasma was separated from the red blood cells by centrifugation at 14000 rpm. Plasma (100 μl) was mixed with acetonitrile at a 1:1.5 ratio and centrifuged at 14000 rpm. Radioactivity associated with the red blood cell pellet, whole plasma, and acetonitrile-soluble and insoluble fractions was measured. The liver of each animal was also collected at the indicated times and frozen on dry ice. Livers were homogenized in 2 ml acetonitrile and 1 ml of the homogenized liver was centrifuged at 14000 rpm. Radioactivity associated with the supernatant and pellet was measured. Acetonitrile-soluble plasma or liver supernatant (100 μl) was mixed at a 1:1 ratio with water and separated by reverse phase HPLC. The parent compound was also separated by HPLC as a reference. The radioactivity associated with each HPLC fraction was measured. The percent parent compound of each sample was calculated as the portion radioactivity associated with the HPLC fractions expected to contain the parent compound.

MDA-MB-231 tumors = test: microPET imaging with [18F]12, MDA-MB-231 tumors; format: in vivo, mice; settings: baseline, 60 minute dynamic scan
Procedure: This example illustrates the visualization of tumor tissue in microPET in mice. MDA-MB-436 human breast cancer xenograft tumors in immune-deficient mice were visualized by PET using [^18F]12.
Tumor-bearing mice were placed in an induction chamber containing ˜2% isoflurane/oxygen and then secured to a custom double bed for placement of tail vein catheters; anesthesia was maintained via nose-cone at ˜1% isoflurane/oxygen for the dynamic imaging procedure. The mice were injected with 150-200 μCi of [^18F]12 and scanned for 0-60 min using Focus 220 and Inveon PET/CT scanners. The standard uptake values (SUVs) were generated from manually drawn regions of interests for tumors and surrounding ‘background’ tissue. Visualization of specific uptake was determined by comparison of baseline scans with images acquired by tracer injection 20 minutes after pre-treatment with the blocking agents olaparib (50 mg/kg, IP) or 12 (1 mg/kg, IP).
This example illustrates uptake of Compound 12 ([^18F]WC-4-138) in mice. Mature female athymic nude mice (Charles River Laboratories) were implanted with 10^6 SCC1 cells or 10^7 MDA-MB-231 cells into the mammary fat pads. Mice bearing SCC1 tumors were imaged at 5 weeks and mice bearing MDA-MB-231 cells were imaged at 2.5 weeks after implant. Mice were anesthetized with 2% isoflurane/oxygen and maintained at 1% isoflurane/oxygen via nose cone throughout the imaging procedure. Whole animal microCT images were acquired on an Inveon PET/CT scanner. The mice were injected via tail vein with 11.36±0.5 MBq (307±13 μCi) of [^18F]WC(4)-138 and underwent a 60 minute dynamic scan using Focus 220 or Inveon PET/CT scanners. The microPET and microCT images were coregistered using Integrated Research Workflow software (Siemens). Regions of interest were drawn over tumors to determine time activity curves. For drug treatment studies, animals reached intraperitoneal injections of 50 mg/kg olaparib or iniparib 30 minutes before imaging. Mice were imaged at baseline, or 30 minutes after IP injection of olaparib or iniparib. Arrows indicate location of tumors as identified on CT.
In FIG. 8, mice were imaged at baseline, or 30 minutes after IP injection of olaparib or iniparib. (A) The percent of injected dose per ml was calculated for each MDA/MB-231 tumor at baseline or after drug treatment. […] Tracer uptake was unchanged in iniparib-treated mice (p=0.1098 as determined by a paired t test, n=6 tumors).

percent parent compound relative to the reference compound, blood ([1]; 5 minutes post-injection): 50%
percent parent compound relative to the reference compound, liver ([1]; 5 minutes post-injection): about 80%
percent parent compound relative to the reference compound, blood ([1]; 30 minutes post-injection): about 10%
percent parent compound relative to the reference compound, liver ([1]; 30 minutes post-injection): about 70%
Compound: O=C1NCCn2c(-c3ccc(OCC[18F])cc3)nc3cccc1c32 [[^18F]12]
tracer uptake in MDA-MB-231 tumors (microPET images) (MDA-MB-231 tumors): abundantly taken up in tumors

— patent US9993570B2, “Radiolabeled tracers for poly (ADP-ribose) polymerase-1 (PARP-1), methods and uses therefor” (Washington University, priority 2014, dated 2018)
